# Measurements: the NIST ThermoML archive (doi:10.1021/je700339f)
# ± gives the expanded uncertainty stated by the source.
# Conditions: 101.33 kPa, Liquid
mass density (298.15 K),mass density (308.15 K),Compound
937 ± 0.4 kg/m3,926.9 ± 0.4 kg/m3,"CC(=O)N(C)C [N,N-dimethylethanamide]"
943.8 ± 0.4 kg/m3,934.2 ± 0.4 kg/m3,CN(C)C=O [dimethylformamide]
